{
  "source": "patent US12358963B2",
  "about": "“Regenerative polypeptides and uses thereof” (Juvena Therapeutics, Inc., priority 2019, dated 2025)",
  "type_in_all_cases": "cell-based",
  "key": {"human myoblast cells": {"tested_on": "human myoblast cells", "assay": "Human myoblast differentiation, % area eMyHC (IGF2, sodium butyrate)", "details": "96h, vehicle 6.813", "experimental": "Fresh media was added every 24 hours. […] The total area of eMyHc positive cells was analyzed, and treated cells were compared to cells treated with the vehicle alone. […] Myoblast were cultured 96h in the presence of BMP7 at indicated dose. Fresh media and BMP7 was added every 24h. Mean∓S.D. (*p<0.05 by One-Way Anova Tukey Honest Significant Difference, n=2-12) […] Fresh media was added every 24 hours. […] FIG. 3A: Bar graph of % Area eMyHC+ age human myoblast (person) in response to indicated treatment compared to Vehicle (vehicle). Myoblast were cultured 96h in the presence of factors at indicated dose. Fresh media and factors were added every 24h. Mean∓S.D. Significant p-values (Vehicle IGF2: 0.03 ug/mL: 1.42E-08, Vehicle NaBut: 1 nM IGF2: 0.03 ug/mL: 1.79E-11, Vehicle NaBut: 10 nM IGF2: 0.03 ug/mL: 1.80E-11, Vehicle NaBut: 100 nM IGF2: 0.03 ug/mL: 1.79E-11). […] Myoblast were cultured 96h in the presence of BMP7 at indicated dose. Mean±S.D. Significant p-values (IGF2 NaBut: 1 nM IGF2: 0.03 ug/mL: 1.88E-3, Vehicle NaBut: 10 nM IGF2: 0.03 ug/mL: 4.80E-3, Vehicle NaBut: 100 nM IGF2: 0.03 ug/mL: 1.87E-3) (*p<0.05 by One-Way ANOVA Tukey Honest Significant Difference, n=2-12)"}, "DM1 human myoblast [1]": {"tested_on": "DM1 human myoblast", "assay": "DM1 human myoblast fusion (% eMyHC area)", "details": "96h; vehicle 0.45", "experimental": "(§1) Bar graph of % EdU+ human myoblast (person) and % area MyHC in response to IGF2. Myoblast were cultured 72h for proliferation and 96h for fusion in the presence of indicated factor. Mean∓S.D. Mean∓SD. Significant p-values (EdU: Vehicle˜IGF2: 6.8E-3, % eMyHC Area: Vehicle˜IGF2: 1.9E-4) (*p<0.05 by Students Two-Tailed T-test, n=3-6).\n(§2) IGF2 was tested individually for its ability to promote proliferation and/or fusion of human muscle progenitor cells from an individual with myotonic dystrophy type 1 (hMD)—a muscular dystrophy caused by mutations in the DMPK1 gene. The effect of IGF2 on myogenic activity was assayed in biological triplicate across a range of concentrations centered around expected physiological levels by adding each factor to hMD myoblasts for 72 hours with daily media changes (DMEM +2% horse serum) and a second pulse of factors at the first media change. After 72 or 96 hours, cells were pulsed for 2-5 hours with EdU (30 uM), ethanol fixed, stained with Hoescht 3342, immunostained for proliferation—as measured by the percent of cells staining positive for EdU (% EdU)—, and immunostained for differentiation—as measured by the increase in cellular area staining positive for embryonic myosin heavy chain (% eMyHC) relative to the negative controls, which received media and vehicle only. […]"}, "DM1 human myoblast [2]": {"tested_on": "DM1 human myoblast", "assay": "DM1 human myoblast proliferation (EdU)", "details": "72h; vehicle 1.0", "experimental": "as §1, §2"}, "DM1 human myoblast [3]": {"tested_on": "DM1 human myoblast", "assay": "Gene expression fold change in DM1 human myoblast", "details": "IGF2 200 ng/mL"}, "[4]": {"tested_on": "aged human myoblast cell lines", "assay": "Myogenic gene RNA expression in aged human myoblasts by real-time qPCR", "experimental": "Myogenic gene RNA expression (fold change to FM) in response to vehicle (FM) in mouse myoblast cell lines monitored by real-time qPCR. Myoblast were cultured 48h in fusion media. Mean±SD. n=3. (Y,Z) Differential induction of myogenic gene expression by FGF17 in human myoblast myoblasts. Quantitation table of myogenic gene RNA expression (fold change to FM-fusion media (DMEM+2% horse serum)) in response to FM or rh-FGF17 in aged human myoblast cell lines by real-time qPCR. Myoblast were cultured (B) 48 hours or (C) 72 hours in FM. Mean∓SD. n=3.\nRNA was isolated from each well (RNeasy Mini Kit, Qiagen) and cDNA was obtained by reverse-transcription (High Capacity Reverse Transcription Kit, Thermo Fisher Scientific). Real-time quantitative PCR was performed using QuantStudio3 (Thermo Fisher).\nAged human myoblasts were cultured in well plates. […] Cells that had been cultured with IGF2 had increases in levels of MYOG at 48 hours and levels of MYOD at 72 hours."}, "[5]": {"details": "48h, BMP7 50 ng/mL, Butyrate 100 nM, FM 1.000"}},
  "data": [
    {"substance": "IGF2: IGF2 polypeptide, IGF1R agonist", "values": [
      {"measurement": "% eMyHC", "setting": "human myoblast cells; IGF2 0.015 ug/mL", "result": 10.843, "unit": "%"},
      {"measurement": "% eMyHC", "setting": "human myoblast cells; IGF2 0.03 ug/mL, aged human myoblast", "result": 16.620, "unit": "%"},
      {"measurement": "% eMyHC are", "setting": "DM1 human myoblast [1]", "result": 5.49, "unit": "%"},
      {"measurement": "EdU FC", "setting": "DM1 human myoblast [2]", "result": 2.18},
      {"measurement": "ATP1B1 expression fold change compared to FM (vehicle)", "setting": "DM1 human myoblast [3]; 48h", "result": 3.018},
      {"measurement": "MYF5 expression fold change compared to FM", "setting": "DM1 human myoblast [3]; [5]", "result": 0.730},
      {"measurement": "MYOD1 expression fold change compared to FM", "setting": "DM1 human myoblast [3]; [5]", "result": 1.252},
      {"measurement": "MYOG expression fold change compared to FM", "setting": "DM1 human myoblast [3]; [5]", "result": 2.972},
      {"measurement": "CKM expression fold change compared to vehicle", "setting": "DM1 human myoblast [3]; 96h", "result": 5.165},
      {"measurement": "MYH3 expression fold change compared to vehicle", "setting": "DM1 human myoblast [3]; 96h", "result": 14.833},
      {"measurement": "MYOD1 RNA expression (fold change to FM)", "setting": "[4]; 48 hr, FM 1.001", "result": 0.519},
      {"measurement": "MYOG RNA expression (fold change to FM)", "setting": "[4]; 48 hr, FM 1.013", "result": 5.756},
      {"measurement": "MYF5 RNA expression (fold change to FM)", "setting": "[4]; 48 hr, FM 1.04", "result": 0.409},
      {"measurement": "MYF5 RNA expression (fold change to FM)", "setting": "[4]; 72 hr, FM 1.023", "result": 0.708},
      {"measurement": "MYOD1 RNA expression (fold change to FM)", "setting": "[4]; 72 hr, FM 1.055", "result": 5.723},
      {"measurement": "MYOG RNA expression (fold change to FM)", "setting": "[4]; 72 hr, FM 1.092", "result": 0.018}
    ]}
  ]
}
